Patent US20140357577A1, “HIV Membrane Fusion Inhibitors” (priority 2011, published 2014)
Starred links: 1 amine or outer side, 2 acyl side, 3 side chain; linkers in the order of their positions; H or OH if unused. *: point of attachment. Suc = O=C(CCC(=O)[*:2])[*:1]; Isovaleryl = CC(C)CC(=O)*; Pentanoyl = CCCCC(=O)*; Butyryl = CCCC(=O)*

Assays:
HIV-IIIB + 50% HS = experiment: Standard AVE (50% Human Serum), HIV-1 replication assay in MT4-LTR-EGFP cells; type: cell-based; conditions: fold change vs EC50 in the assay without human serum
From the text: The HIV-1 replication assay (with 50% human serum) measures virus replication as an induction of enhanced green fluorescent protein (EGFP) expression, in the presence of 50% human serum. The indicator MT4-LTR-EGFP cells contain an EGFP gene under the control of the HIV-1 LTR promoter sequence. Successful HIV-1 infection results in viral Tat protein expression and subsequent induction of EGFP expression. Compounds/peptides inhibiting HIV-1 infection are expected to reduce EGFP expression as compared to the untreated HIV-infected control. Compounds/peptides binding to human serum are expected to have a reduced activity for inhibiting the virus in the assay.
Serial 4-fold dilutions of test compounds/peptides were mixed with HIV-1 and MT4-LTR-EGFP cells and incubated at 37° C., in the presence of 50% human serum. After 3 days, the wells were examined for EGFP expression using an argon laser-scanning microscope. The effective compound/peptide concentration inhibiting 50% of the virus-induced EGFP signal (EC50) was determined by linear interpolation of the EGFP signal vs. logarithm of the compound concentration; T20, C34 and Sifuvirtide were added as reference compounds. Results were reported as a fold change in EC50, as compared with the acquired EC50 in the assay without human serum.

[1] = system: HIV wild type virus strain IIIB; experiment: Standard Anti-Viral-Experiment (AVE), HIV-1 replication assay in MT4-LTR-EGFP cells, wild type IIIB; type: cell-based; conditions: 3 days, EGFP signal
Summary of the method: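 MT4-LTR-EGFP cells infected with HIV-1 IIIB, HXB2D or HXB2D gp41 mutants V38A/Q40H alongside serial 4-fold compound dilutions, 3 days at 37° C. EGFP read by laser-scanning microscopy; EC50 by linear interpolation against log concentration. Mutant results given as fold change in EC50 versus wild-type HXB2D.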

[2] = system: HIV mutant virus strain HXB2D with mutation Q40H in the gp41 gene; experiment: Standard AVE, HXB2D site directed mutant Q40H; type: cell-based, HIV-1; conditions: fold change vs wild type strain HXB2D
From the text: • Standard Anti-Viral-Experiment “AVE” (wild type HIV strain IIIB+HIV strain HXB2D side directed mutants V38A and Q40H)
The HIV-1 replication assay measures virus replication (HIV wild type virus strain 111B or HXB2D, or a HIV mutant virus strain HXB2D with mutation V38A or Q40H in the gp41 gene) as an induction of enhanced green fluorescent protein (EGFP) expression. The indicator MT4-LTR-EGFP cells contain an EGFP gene under the control of the HIV-1 LTR promoter sequence. Successful HIV-1 infection results in viral Tat protein expression and subsequent induction of EGFP expression. Compounds/peptides inhibiting HIV-1 infection are expected to reduce EGFP expression as compared to the untreated HIV-infected control.
Serial 4-fold dilutions of test compounds/peptides were mixed with HIV-1 (IIIB, HXB2D, or a HXB2D mutant virus (V38A or Q40H)) and MT4-LTR-EGFP cells and incubated at 37° C. After 3 days, the wells were examined for EGFP expression using an argon laser-scanning microscope. The effective compound/peptide concentration inhibiting 50% of the virus-induced EGFP signal (EC50) was determined by linear interpolation of the EGFP signal vs. logarithm of the compound concentration; (T20, C34 and Sifuvirtide were added as reference compounds). For the V38A and Q40H mutant viruses, results were reported as a fold change in EC50, as compared with a drug-susceptible wild type strain HXB2D, which forms the backbone of the mutant virus. • Standard AVE (50% Human Serum)

Row | Substance | HIV-IIIB + 50% HS (Fold change in EC50) (HIV-IIIB + 50% HS) | EC50 [1] [nM] | HIV-HXB2D Q40H mutant (fold change in EC50) [2]
1 | AC-ACYLACIEALIRRAQEQQEKNEAALR-NH2 [Peptide 51] | 1 | 3 | 93
2 | AC-ECYLACIEALIRAAQEQQEKNEAALR-NH2 [Peptide 45] | 1 | – | 64
3 | ANYAALIEALIRAAQEQQEKNEAALR [Peptide 2] | 1 | 77 | >28
4 | ANYLALIEELIRAAQEQQEKNEAALR [Peptide 10] | 0.4 | 4 | >695
5 | Ac-ACYAACIEALIRAAQEQQEKNEAALR-NH2 [Peptide 66] | 2 | 3 | 231
6 | Ac-ACYAACIEALIRAAQEQQEKNEAALR-NH2 [Peptide 68] | 2 | – | >67
7 | Ac-ACYLACIEALIRKAQEQQEKNEAALR-NH2 [Peptide 48] | 1 | 3 | 62
8 | Ac-ECYAACIEELIRKAQEQQEKNEAALR-NH2 [Peptide 53] | 0.3 | 21 | >164
9 | Ac-ECYLACIEELIRKAQEQQEKNEAALR-NH2 [Peptide 37] | 0.7 | – | 108
10 | Ac-ECYLRCIEALIRAAQEQQEKNEAALR-NH2 [Peptide 50] | 2 | 2 | 33
11 | Butanoyl-ECYLACIEELIRKAQEQQEKNEAALR-NH2 (Butyryl-ECYLACIEELIRKAQEQQEKNEAALR-NH2; cysteine pairing not given here) [Peptide 40] | 1 | 1 | 84
12 | ENYLALIEALIRAAQEQQEKNEAALL [Peptide 9] | 0.4 | 3 | 1196
13 | ENYLALIEALIRAAQEQQEKNEAALR [Peptide 8] | 0.4 | 2 | 900
14 | Isovaleryl-ANYAALIEALIRAAQEQQEKNEAALR-NH2 (SMILES CC[C@H](C)[C@H](NC(=O)[C@H](CC(C)C)NC(=O)[C@H](C)NC(=O)[C@H](CCC(=O)O)NC(=O)[C@@H](NC(=O)[C@H](CC(C)C)NC(=O)[C@H](C)NC(=O)[C@H](C)NC(=O)[C@H](Cc1ccc(O)cc1)NC(=O)[C@H](CC(N)=O)NC(=O)[C@H](C)NC(=O)CC(C)C)[C@@H](C)CC)C(=O)N[C@@H](CCCNC(=N)N)C(=O)N[C@@H](C)C(=O)N[C@@H](C)C(=O)N[C@@H](CCC(N)=O)C(=O)N[C@@H](CCC(=O)O)C(=O)N[C@@H](CCC(N)=O)C(=O)N[C@@H](CCC(N)=O)C(=O)N[C@@H](CCC(=O)O)C(=O)N[C@@H](CCCCN)C(=O)N[C@@H](CC(N)=O)C(=O)N[C@@H](CCC(=O)O)C(=O)N[C@@H](C)C(=O)N[C@@H](C)C(=O)N[C@@H](CC(C)C)C(=O)N[C@@H](CCCNC(=N)N)C(N)=O) [Peptide 17] | 0.9 | 24 | >37
15 | Pentanoyl-ANYAALIEALIRAAQEQQEKNEAALR-NH2 (SMILES CCCCC(=O)N[C@@H](C)C(=O)N[C@@H](CC(N)=O)C(=O)N[C@@H](Cc1ccc(O)cc1)C(=O)N[C@@H](C)C(=O)N[C@@H](C)C(=O)N[C@@H](CC(C)C)C(=O)N[C@H](C(=O)N[C@@H](CCC(=O)O)C(=O)N[C@@H](C)C(=O)N[C@@H](CC(C)C)C(=O)N[C@H](C(=O)N[C@@H](CCCNC(=N)N)C(=O)N[C@@H](C)C(=O)N[C@@H](C)C(=O)N[C@@H](CCC(N)=O)C(=O)N[C@@H](CCC(=O)O)C(=O)N[C@@H](CCC(N)=O)C(=O)N[C@@H](CCC(N)=O)C(=O)N[C@@H](CCC(=O)O)C(=O)N[C@@H](CCCCN)C(=O)N[C@@H](CC(N)=O)C(=O)N[C@@H](CCC(=O)O)C(=O)N[C@@H](C)C(=O)N[C@@H](C)C(=O)N[C@@H](CC(C)C)C(=O)N[C@@H](CCCNC(=N)N)C(N)=O)[C@@H](C)CC)[C@@H](C)CC) [Peptide 14] | 2 | 13 | >67
16 | Pentanoyl-ANYAALIEALIRKAQEQQEKNEAALR-NH2 (SMILES CCCCC(=O)N[C@@H](C)C(=O)N[C@@H](CC(N)=O)C(=O)N[C@@H](Cc1ccc(O)cc1)C(=O)N[C@@H](C)C(=O)N[C@@H](C)C(=O)N[C@@H](CC(C)C)C(=O)N[C@H](C(=O)N[C@@H](CCC(=O)O)C(=O)N[C@@H](C)C(=O)N[C@@H](CC(C)C)C(=O)N[C@H](C(=O)N[C@@H](CCCNC(=N)N)C(=O)N[C@@H](CCCCN)C(=O)N[C@@H](C)C(=O)N[C@@H](CCC(N)=O)C(=O)N[C@@H](CCC(=O)O)C(=O)N[C@@H](CCC(N)=O)C(=O)N[C@@H](CCC(N)=O)C(=O)N[C@@H](CCC(=O)O)C(=O)N[C@@H](CCCCN)C(=O)N[C@@H](CC(N)=O)C(=O)N[C@@H](CCC(=O)O)C(=O)N[C@@H](C)C(=O)N[C@@H](C)C(=O)N[C@@H](CC(C)C)C(=O)N[C@@H](CCCNC(=N)N)C(N)=O)[C@@H](C)CC)[C@@H](C)CC) [Peptide 16] | 0.8 | 8 | >108
17 | Pentanoyl-ANYLALIEALIRAAQEQQEKNEAALR-NH2 (SMILES CCCCC(=O)N[C@@H](C)C(=O)N[C@@H](CC(N)=O)C(=O)N[C@@H](Cc1ccc(O)cc1)C(=O)N[C@@H](CC(C)C)C(=O)N[C@@H](C)C(=O)N[C@@H](CC(C)C)C(=O)N[C@H](C(=O)N[C@@H](CCC(=O)O)C(=O)N[C@@H](C)C(=O)N[C@@H](CC(C)C)C(=O)N[C@H](C(=O)N[C@@H](CCCNC(=N)N)C(=O)N[C@@H](C)C(=O)N[C@@H](C)C(=O)N[C@@H](CCC(N)=O)C(=O)N[C@@H](CCC(=O)O)C(=O)N[C@@H](CCC(N)=O)C(=O)N[C@@H](CCC(N)=O)C(=O)N[C@@H](CCC(=O)O)C(=O)N[C@@H](CCCCN)C(=O)N[C@@H](CC(N)=O)C(=O)N[C@@H](CCC(=O)O)C(=O)N[C@@H](C)C(=O)N[C@@H](C)C(=O)N[C@@H](CC(C)C)C(=O)N[C@@H](CCCNC(=N)N)C(N)=O)[C@@H](C)CC)[C@@H](C)CC) [Peptide 15] | 2 | 2 | 168
18 | Suc-ENYLALIEELIRKAQEQQEKNEAALR-NH2 (SMILES CC[C@H](C)[C@H](NC(=O)[C@H](CC(C)C)NC(=O)[C@H](C)NC(=O)[C@H](CC(C)C)NC(=O)[C@H](Cc1ccc(O)cc1)NC(=O)[C@H](CC(N)=O)NC(=O)[C@H](CCC(=O)O)NC(=O)CCC(=O)O)C(=O)N[C@@H](CCC(=O)O)C(=O)N[C@@H](CCC(=O)O)C(=O)N[C@@H](CC(C)C)C(=O)N[C@H](C(=O)N[C@@H](CCCNC(=N)N)C(=O)N[C@@H](CCCCN)C(=O)N[C@@H](C)C(=O)N[C@@H](CCC(N)=O)C(=O)N[C@@H](CCC(=O)O)C(=O)N[C@@H](CCC(N)=O)C(=O)N[C@@H](CCC(N)=O)C(=O)N[C@@H](CCC(=O)O)C(=O)N[C@@H](CCCCN)C(=O)N[C@@H](CC(N)=O)C(=O)N[C@@H](CCC(=O)O)C(=O)N[C@@H](C)C(=O)N[C@@H](C)C(=O)N[C@@H](CC(C)C)C(=O)N[C@@H](CCCNC(=N)N)C(N)=O)[C@@H](C)CC) [Peptide 19] | – | 1 | 151
